# Results: ChEMBL document CHEMBL4387716, “Discovery of trans-3-(pyridin-3-yl)acrylamide-derived sulfamides as potent nicotinamide phosphoribosyltransferase (NAMPT) inhibitors for the potential treatment of cancer” (Bioorg Med Chem Lett, 2019)
# What was measured:
# K562 = assay: Antiproliferative activity against human K562 cells assessed as inhibition of cell growth after 72 hrs by CCK-8 assay; format: functional, cell-based; conditions: K562, 72 h
# MCF7 = assay: Antiproliferative activity against human MCF7 cells assessed as inhibition of cell growth after 72 hrs by CCK-8 assay; format: functional, cell-based; conditions: MCF7, 72 h
# DU-145 = assay: Antiproliferative activity against human DU145 cells assessed as inhibition of cell growth after 72 hrs by CCK-8 assay; format: functional, cell-based; conditions: DU-145, 72 h
# HeLa = assay: Antiproliferative activity against human HeLa cells assessed as inhibition of cell growth after 72 hrs by CCK-8 assay; format: functional, cell-based
# NCI-H1975 = assay: Antiproliferative activity against human NCI-H1975 cells harboring EGFR L858R/T790M mutation assessed as inhibition of cell growth after 72 hrs by CCK-8 assay; format: functional, cell-based; conditions: NCI-H1975, 72 h
# Huh-7 = assay: Antiproliferative activity against human HuH7 cells assessed as inhibition of cell growth after 72 hrs by CCK-8 assay; format: functional, cell-based; conditions: Huh-7, 72 h
# [1] = target: Nicotinamide phosphoribosyltransferase (Homo sapiens, UniProt P43490); assay: Inhibition of recombinant NAMPT (unknown origin) using NAM and PRPP as substrates incubated for 60 mins in presence of NMNAT1 measured at 5 mins interval for 30 mins by WST1 assay
# Sequence of Nicotinamide phosphoribosyltransferase (P43490 whole entry): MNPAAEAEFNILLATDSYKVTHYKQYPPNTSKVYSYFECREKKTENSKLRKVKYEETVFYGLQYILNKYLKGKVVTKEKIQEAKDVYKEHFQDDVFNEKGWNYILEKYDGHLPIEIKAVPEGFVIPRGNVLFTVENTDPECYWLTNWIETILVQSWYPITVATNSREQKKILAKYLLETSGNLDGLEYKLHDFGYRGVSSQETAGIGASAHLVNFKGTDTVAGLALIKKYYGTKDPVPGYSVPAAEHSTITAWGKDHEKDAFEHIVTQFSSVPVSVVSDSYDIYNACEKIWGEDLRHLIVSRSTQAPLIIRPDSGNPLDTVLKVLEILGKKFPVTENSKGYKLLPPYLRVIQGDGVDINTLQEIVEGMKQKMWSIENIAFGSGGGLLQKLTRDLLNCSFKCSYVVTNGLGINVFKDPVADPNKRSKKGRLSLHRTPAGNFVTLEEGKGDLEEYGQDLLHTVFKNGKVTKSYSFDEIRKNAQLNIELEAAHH
Compound,IC50 (K562),IC50 (MCF7),IC50 (DU-145),IC50 (HeLa),IC50 (NCI-H1975),IC50 (Huh-7),IC50 [1]
O=C(/C=C/c1cccnc1)NCCCCC1CCN(C(=O)c2ccccc2)CC1 [DAPORINAD],0.96 nM,0.41 nM,5.12 nM,3.75 nM,4.76 nM,1.05 nM,
O=C(/C=C/c1cccnc1)NCCCCCCc1cccc(S(=O)(=O)Nc2ccc(Cl)cc2)c1,6.41 nM,5.94 nM,84.4 nM,170 nM,33.3 nM,24.1 nM,10.8 nM
O=C(/C=C/c1cccnc1)NCCCc1cccc(S(=O)(=O)Nc2ccccc2)c1,86.8 nM,142 nM,165 nM,115 nM,261 nM,384 nM,235 nM
O=C(/C=C/c1cccnc1)NCCCCCCc1ccc(S(=O)(=O)Nc2ccccc2)cc1,48.5 nM,36 nM,328 nM,377 nM,239 nM,112 nM,14.4 nM
Cc1ccccc1NS(=O)(=O)c1cccc(CCCCCCNC(=O)/C=C/c2cccnc2)c1,0.456 to 0.46 nM,0.226 to 0.23 nM,2.9 nM,2.34 nM,2.24 nM,0.525 to 0.53 nM,5.08 nM
O=C(/C=C/c1cccnc1)NCCCCCCc1cccc(S(=O)(=O)Nc2ccccc2)c1,0.88 nM,0.63 nM,6.73 nM,30.4 nM,6.37 nM,2.82 nM,10.5 nM
O=C(/C=C/c1cccnc1)NCCCc1ccc(S(=O)(=O)Nc2ccccc2)cc1,4900 nM,4120 nM,> 10000 nM,> 10000 nM,> 10000 nM,> 10000 nM,5920 nM
Cc1cccc(NS(=O)(=O)c2cccc(CCCCCCNC(=O)/C=C/c3cccnc3)c2)c1,4.78 nM,4 nM,41.7 nM,65.8 nM,40.7 nM,13.2 nM,12.3 nM
Cc1ccc(NS(=O)(=O)c2cccc(CCCCCCNC(=O)/C=C/c3cccnc3)c2)cc1,2.98 nM,1.97 nM,34.4 nM,38.8 nM,17.1 nM,6.92 nM,9.78 nM
O=C(/C=C/c1cccnc1)NCCCCCc1cccc(S(=O)(=O)Nc2ccccc2)c1,16.2 nM,12.5 nM,140 nM,105 nM,146 nM,41.1 nM,16.5 nM
O=C(/C=C/c1cccnc1)NCCCCCCc1cccc(S(=O)(=O)Nc2ccc(F)cc2)c1,0.93 nM,0.91 nM,10.6 nM,99.9 nM,1.34 nM,4.28 nM,9.2 nM
O=C(/C=C/c1cccnc1)NCCCCc1ccc(S(=O)(=O)Nc2ccccc2)cc1,9.56 nM,5.03 nM,47.9 nM,184 nM,63.6 nM,24.2 nM,17.8 nM
Cc1ccc(C)c(NS(=O)(=O)c2cccc(CCCCCCNC(=O)/C=C/c3cccnc3)c2)c1,0.84 nM,0.6 nM,7.48 nM,22.6 nM,4.88 nM,2.58 nM,11.6 nM
O=C(/C=C/c1cccnc1)NCCCCCc1ccc(S(=O)(=O)Nc2ccccc2)cc1,146 nM,95.7 nM,581 nM,333 nM,778 nM,408 nM,28.4 nM
O=C(/C=C/c1cccnc1)NCCCCCCc1cccc(S(=O)(=O)Nc2ccc(C(F)(F)F)cc2)c1,44.9 nM,67.8 nM,1410 nM,1450 nM,175 nM,164 nM,24.5 nM
CC(C)(C)c1ccc(NS(=O)(=O)c2cccc(CCCCCCNC(=O)/C=C/c3cccnc3)c2)cc1,24.7 nM,26.3 nM,281 nM,1520 nM,157 nM,163 nM,9.47 nM
O=C(/C=C/c1cccnc1)NCCCCCCc1cccc(S(=O)(=O)Nc2ccc(F)c(Cl)c2)c1,5.31 nM,6.3 nM,150 nM,385 nM,25 nM,39.4 nM,9.7 nM
O=C(/C=C/c1cccnc1)NCCCCCCc1cccc(S(=O)(=O)Nc2ccc(Oc3ccccc3)cc2)c1,5.12 nM,3.84 nM,50.9 nM,262 nM,25.6 nM,32.7 nM,13.1 nM
O=C(/C=C/c1cccnc1)NCCCCCCCc1cccc(S(=O)(=O)Nc2ccccc2)c1,61.1 nM,42.6 nM,429 nM,598 nM,316 nM,138 nM,31.3 nM
CCc1ccc(NS(=O)(=O)c2cccc(CCCCCCNC(=O)/C=C/c3cccnc3)c2)cc1,3.89 nM,3.64 nM,40.1 nM,132 nM,33.4 nM,34.6 nM,31.5 nM
O=C(/C=C/c1cccnc1)NCCCCCCCc1ccc(S(=O)(=O)Nc2ccccc2)cc1,56.5 nM,37.6 nM,438 nM,223 nM,330 nM,1220 nM,16.4 nM
